In US6635652B1, “Azaindolizinone derivatives and cerebral function improvers containing the same as the active ingredient” (Zenyaku Kogyo Kabushiki Kaisha, priority 1999, dated 2003):

Columns and labels:
[1] = tested on: amnesia of rats induced by scopolamine; assay: Effects on scopolamine-induced amnesia (passive avoidance task, oral administration); type: in vivo; settings: Rattus norvegicus, po, 60 min before retention trial, scopolamine hydrobromide 2 mg/kg i.p., passive avoidance latency, male Strague Dawley rats, read-out: Inhibitory rate (%); for inhibition in vivo at 0.01 mg/kg: 0.01 mg/kg p.o.; for inhibition in vivo at 1 mg/kg: 1 mg/kg p.o.
From the text: Male rats of the Strague Dawley strain at 8 weeks of age (260±2 g body weight) were used for evaluation through passive avoidance task. The apparatus of passive avoidance task comprises illuminated and dark chambers which are separated from each other by a wall with a door. Floors are constituted by grids made of stainless steel; only the grid in the dark chamber is furnished with wiring for electrification.
Effected on the first and second days of testing was preparative training; each rat was placed in the illuminated chamber and left for 3 minutes to habituate to the apparatus. On the third day of testing, the rats were individually placed in the illuminated chamber and after entering the dark chamber, the door was closed and the floor grid was electrified to deliver electric shock (100 V, 0.4 mA, a period of 0.8 sec). In order to induce amnesia, scopolamine hydrobromide (2 mg/kg) was intraperitoneally injected 20 minutes before the electric shock was delivered. Retention in memory on the electric shock was tested 24 hours later; more specifically, retention in passive avoidance trial was measured in terms of a time interval (latency) from placement of each rat in the illuminated chamber to its entry into the dark chamber. The latency over 300 seconds was recorded as 300 seconds. Respective test compounds were suspended in an aqueous solution of 1% carboxymethyl cellulose and orally administered at a dose of 0.01 or 1 mg/kg 60 minutes before the trial.
Antiamnesic effects of the test compounds were evaluated by inhibitory rate (%) which is calculated by the following formula: [formula]
wherein T stands for latency and SC stands for administration of scopolamine hydrobromide. Experimental results are shown in the following table in which, as to each of the test compounds, only the dose showing higher inhibitory rate was indicated.

rats of the ICR strain = assay: Toxicity test on rats in a single dose through oral administration; type: in vivo; settings: oral administration of 2,000 mg/kg, suspended in 1% HPC, observation for 14 days
Protocol: Used in the test were rats of the ICR strain at 6 weeks of age (27.9±0.4 g body weight). They were allowed to freely take food and water; however, fasting was made for a period of 17 hours before administration of the test compounds and for a period of 4 hours after the administration. The respective test compounds were suspended in 1% of hydroxypropyl cellulose (HPC)and orally administered. Until 6 hours after the administration of the test compounds, observation was made frequently, and after that once a day and totally for 14 days.
Used as the test compounds were Compounds 8 and 10.

| Structure (SMILES) | inhibition in vivo at 0.01 mg/kg [1] [%] | death after single oral dose (rats of the ICR strain) | inhibition in vivo at 1 mg/kg [1] [%] | melting point [°C] |
| --- | --- | --- | --- | --- |
| O=C1N=C2C=CC=CN2C1(Cc1ccccc1)Cc1ccccc1 [Compound 10, 3,3-Dibenzylimidazo[1,2-a]pyridin-2(3H)-one] | 78.7 | None of them induced death |  |  |
| CC1=CC=CN2C1=NC(=O)C2(Cc1ccccc1)Cc1ccccc1 [Compound 8, 3,3-Dibenzyl-8-methylimidazo[1,2-a]pyridin-2(3H)-one] | 34.8 | None of them induced death |  |  |
| COc1ccc(CC2(Cc3ccc(OC)cc3)C(=O)N=C3C=CC=CN32)cc1 [Compound 19, 3,3-bis(4-Methoxybenzyl)imidazo[1,2-a]pyridin-2(3H)-one] |  |  | 64.3 | 248 to 251 |
| O=C1N=C2C=CC=CN2C1(Cc1ccc(F)cc1)Cc1ccc(F)cc1 [Compound 16, 3,3-bis(4-Fluorobenzyl)imidazo[1,2-a]pyridin-2(3H)-one] | 55.4 |  |  | 290 to 292 |
| C=CCOC1=CC=CN2C1=NC(=O)C2(Cc1ccccc1)Cc1ccccc1 [Compound 5, 8-Allyloxy-3,3-dibenzylimidazo[1,2-a]pyridin-2(3H)-one] |  |  | 34.8 | 214 to 215 |
| O=C1N=C2C=CC=CN2C1(CCCc1ccccc1)CCCc1ccccc1 [Compound 26, 3,3-bis(3-Phenyl-1-propyl)imidazo[1,2-a]pyridin-2(3H)-one] | 53.5 |  |  | 227 to 228 |
| O=C1N=C2C(OCC3CC3)=CC=CN2C1(Cc1ccccc1)Cc1ccccc1 [Compound 3, 3,3-Dibenzyl-8-cyclopropylmethyloxyimidazo[1,2-a]-pyridin-2(3H)-one] |  |  | 47.4 | 236 to 237 |
